Laboratory results as given in US4358448A, “N-substituted thiazolyl derivatives of oxy-imino-substituted cephalosporins useful as anti-bacterial agents” (Farmitalia Carlo Erba S.p.A., priority 1979, dated 1982).

Experiments:
streptococci = experiment: antibacterial activity against streptococci, relative to reference cephalosporin; assay type: cell-based
[1] = tested on: most Gram-negative bacteria; experiment: antibacterial activity against most Gram-negative bacteria, relative to reference cephalosporins; assay type: cell-based
[2] = tested on: beta-lactamase producers organisms, such as Klebsiella aerogenes 1082 E, Enterobacter cloacae P 99, Escherichia coli Tem; experiment: antibacterial activity against beta-lactamase producers organisms; assay type: cell-based; details: in words
[3] = tested on: clinical isolates of indole-positive Proteus; experiment: antibacterial activity against clinical isolates of indole-positive Proteus relative to HR-756; assay type: cell-based; details: in words
[4] = tested on: Bacteroides fragilis VPI 9032; experiment: antibacterial activity against Bacteroides fragilis relative to Cefotaxime; assay type: cell-based; details: in words
[5] = tested on: Escherichia coli G, Klebsiella pneumoniae ATCC 10031, Proteus mirabilis ATCC 9921, Escherichia coli Tem., Haemophilus influenzae, Salmonella typhi Watson and …; experiment: in vivo tests in infected mice; details: in words
[6] = approximate acute toxicity in the mouse, single intravenous administration; details: in vivo, single intravenous administrations of increasing doses, measured on the seventh day
Excerpt: The toxicity of the compounds of the invention is quite negligible and therefore they can be safely used in therapy.

With `CO/N=C(\C(=O)N[C@@H]1C(=O)N2C(C(=O)O)=C(CSc3ccc4nnnn4n3)CS[C@H]12)c1csc(=N)n1O` [FCE 20635, 7β-[2-(2-imino-3-hydroxy-4-thiazolinyl)-2-methoxyimino-acetamido]-3-[(tetrazolo[1,5-b]pyridazin-6-yl)-thiomethyl]-3-cephem-4-carboxylic acid (syn-isomer)] the “times more active than Cefazolin” value (streptococci) was “about 4 times”, the “times more active than Cefazolin” value [1] was “about 30 times” and the “times more active than Cefuroxime” value [1] was “about 40 times”. The “activity against most beta-lactamase producers organisms” value [2] was “high activity”, the “activity compared with HR-756” value [3] was “more active than HR-756” and the “activity compared with Cefotaxime” value [4] was “at least as active as Cefotaxime”. For the same compound, the “activity in vivo tests” value [5] was “high activity” and the LD50 at 168 h [6] was > 2000 mg/kg.
